Measured values taken from patent US9365512B2, “Isoindoline derivatives, pharmaceutical compositions containing them, and their use in therapy” (AbbVie Deutschland GmbH & Co. KG, priority 2012, dated 2016).

target: T1, human GlyT1c transporter (Homo sapiens, UniProt P48067); experiment: Radioligand binding assay using recombinant CHO cell membranes expressing human GlyT1; details: read-out: radioligand binding Kiapp
T1 construct: expressed in transfected cells; host or cells: CHO cells (recombinant; membranes)
T1 sequence (P48067 1-706): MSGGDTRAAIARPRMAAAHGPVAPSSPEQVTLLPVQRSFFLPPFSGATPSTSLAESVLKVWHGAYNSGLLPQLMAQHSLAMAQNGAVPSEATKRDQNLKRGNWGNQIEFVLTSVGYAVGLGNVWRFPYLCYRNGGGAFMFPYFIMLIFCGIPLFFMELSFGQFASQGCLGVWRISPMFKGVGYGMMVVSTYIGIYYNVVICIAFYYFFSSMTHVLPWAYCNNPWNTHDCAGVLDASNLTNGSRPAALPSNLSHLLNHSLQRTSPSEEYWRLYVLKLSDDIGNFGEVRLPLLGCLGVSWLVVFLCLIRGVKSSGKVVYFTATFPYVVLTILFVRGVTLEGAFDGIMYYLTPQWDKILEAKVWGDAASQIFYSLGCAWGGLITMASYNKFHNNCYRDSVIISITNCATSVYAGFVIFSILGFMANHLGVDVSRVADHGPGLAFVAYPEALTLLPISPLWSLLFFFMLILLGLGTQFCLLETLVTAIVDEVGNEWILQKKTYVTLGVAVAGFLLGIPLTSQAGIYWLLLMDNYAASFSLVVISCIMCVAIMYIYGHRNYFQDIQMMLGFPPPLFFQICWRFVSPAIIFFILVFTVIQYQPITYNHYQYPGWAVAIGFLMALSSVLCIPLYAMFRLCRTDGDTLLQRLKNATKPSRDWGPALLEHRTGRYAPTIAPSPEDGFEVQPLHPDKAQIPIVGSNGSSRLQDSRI
Procedure: 2. Radioligand Binding Assays Using Recombinant CHO Cell Membranes Expressing Human GlyT1:
Radioligand binding to human GlyT1c transporter-expressing membranes was determined as described in Mezler et al., Molecular Pharmacology 74:1705-1715, 2008.

Compound	Ki [nM]
Cn1cnc(S(=O)(=O)NCc2ccc3c(c2)C(Cc2ccccc2)NC3=O)c1 (stereo not drawn) [Example 2, N-[(3-Benzyl-1-oxo-isoindolin-5-yl)methyl]-1-methyl-1H-imidazole-4-sulfonamide]	< 1000
Cn1cc(S(=O)(=O)NCCOc2ccc3c(c2)C(Cc2ccccc2)NC3=O)cn1 (stereo not drawn) [Example 6, N-[2-(3-Benzyl-1-oxo-isoindolin-5-yl)oxyethyl]-1-methyl-1H-pyrazole-4-sulfonamide]	< 10000
Cn1cnc(S(=O)(=O)NCCOc2ccc3c(c2)C(C)(Cc2ccccc2)NC3=O)c1 (stereo not drawn) [Example 8, N-[2-(3-Benzyl-3-methyl-1-oxo-isoindolin-5-yl)oxyethyl]-1-methyl-1H-imidazole-4-sulfonamide]	< 10000
Cn1cc(S(=O)(=O)NCCOc2ccc3c(c2)C(C)(Cc2ccccc2)NC3=O)cn1 (stereo not drawn) [Example 9, N-[2-(3-Benzyl-3-methyl-1-oxo-isoindolin-5-yl)oxyethyl]-1-methyl-1H-pyrazole-4-sulfonamide]	< 10000
Cn1cc(S(=O)(=O)NCCOc2ccc3c(c2)C(C)(Cc2ccccc2)NC3)cn1 (stereo not drawn) [Example 10, N-[2-(3-Benzyl-3-methyl-isoindolin-5-yl)oxyethyl]-1-methyl-1H-pyrazole-4-sulfonamide]	< 100
Cn1cnc(S(=O)(=O)NCCOc2ccc3c(c2)C(C)(Cc2ccccc2)NC3)c1 (stereo not drawn) [Example 11, N-[2-(3-Benzyl-3-methyl-isoindolin-5-yl)oxyethyl]-1-methyl-imidazole-4-sulfonamide]	< 100
Cn1cc(S(=O)(=O)NCCOc2ccc3c(c2)C(Cc2ccccc2)N(C(=O)C(F)(F)F)C3)cn1 (stereo not drawn) [Example 12]	< 1000
CN1Cc2ccc(OCCNS(=O)(=O)c3cnn(C)c3)cc2C1Cc1ccccc1 (stereo not drawn) [Example 13, N-[2-(3-Benzyl-2-methyl-isoindolin-5-yl)oxyethyl]-1-methyl-1H-pyrazole-4-sulfonamide; 2,2,2-trifluoroacetic acid]	< 10
CN1Cc2ccc(OCCNS(=O)(=O)c3cn(C)cn3)cc2C1Cc1ccccc1 (stereo not drawn) [Example 14, N-[2-(3-Benzyl-2-methyl-isoindolin-5-yl)oxyethyl]-1-methyl-1H-imidazole-4-sulfonamide; 2,2,2-trifluoroacetic acid]	< 100
Cn1cc(S(=O)(=O)NCCOc2ccc3c(c2)C(Cc2ccccc2)N(CC(F)(F)F)C3)cn1 (stereo not drawn) [Example 15, N-[2-[3-Benzyl-2-(2,2,2-trifluoroethyl)isoindolin-5-yl]oxyethyl]-1-methyl-1H-pyrazole-4-sulfonamide; 2,2,2-trifluoroacetic acid]	< 1000
Cn1cc(S(=O)(=O)NCCOc2ccc3c(c2)C(Cc2ccccc2)N(C2COC2)C3)cn1 (stereo not drawn) [Example 16, N-[2-[3-Benzyl-2-(oxetan-3-yl)isoindolin-5-yl]oxyethyl]-1-methyl-1H-pyrazole-4-sulfonamide; 2,2,2-trifluoroacetic acid]	< 100
CC1(Cc2ccccc2)NCc2ccc(OCCNS(=O)(=O)CC3CC3)cc21 (stereo not drawn) [Example 18, N-[2-(3-Benzyl-3-methyl-isoindolin-5-yl)oxyethyl]-1-cyclopropyl-methanesulfonamide; 2,2,2-trifluoroacetic acid]	< 1000
Cn1cnc(S(=O)(=O)NCCOc2cc3c(cc2F)C(=O)NC3Cc2ccccc2)c1 (stereo not drawn) [Example 19, N-[2-(3-Benzyl-6-fluoro-1-oxo-isoindolin-5-yl)oxyethyl]-1-methyl-1H-imidazole-4-sulfonamide]	< 1000
CN1Cc2cc(F)c(OCCNS(=O)(=O)CC3CC3)cc2C1Cc1ccccc1 (stereo not drawn) [Example 20, N-(2-(3-Benzyl-6-fluoro-2-methylisoindolin-5-yloxy)ethyl)-1-cyclopropyl-methanesulfonamide]	< 1000
O=C1NC(Cc2ccccc2)c2cc(OCCNS(=O)(=O)CC3CC3)c(F)cc21 (stereo not drawn) [Example 22, N-[2-(3-Benzyl-6-fluoro-1-oxo-2,3-dihydro-1H-isoindol-5-yloxy)-ethyl]-C-cyclopropyl-methanesulfonamide]	< 10000
CCS(=O)(=O)NCCOc1cc2c(cc1F)C(=O)NC2Cc1ccccc1 (stereo not drawn) [Example 24, Ethanesulfonic acid [2-(3-benzyl-6-fluoro-1-oxo-2,3-dihydro-1H-isoindol-5-yloxy)-ethyl]-amide]	< 10000
O=C1NC(Cc2ccccc2)c2cc(CNS(=O)(=O)CC3CC3)ccc21 (stereo not drawn) [Example 26, N-(3-Benzyl-1-oxo-2,3-dihydro-1H-isoindol-5-ylmethyl)-C-cyclopropyl-methanesulfonamide]	< 10000
O=S(=O)(CC1CC1)NCc1ccc2c(c1)C(Cc1ccccc1)NC2 (stereo not drawn) [Example 29, N-(3-Benzyl-2,3-dihydro-1H-isoindol-5-ylmethyl)-C-cyclopropyl-methanesulfonamide]	< 10000
CCCS(=O)(=O)NCc1ccc2c(c1)C(Cc1ccccc1)NC2 (stereo not drawn) [Example 31, Propane-1-sulfonic acid (3-benzyl-2,3-dihydro-1H-isoindol-5-ylmethyl)-amide]	< 10000

Further lines, results first:

Ki [nM]	Compound
< 1000	Cn1cnc(S(=O)(=O)NCCOc2ccc3c(c2)C(Cc2ccccc2)NC3=O)c1 (stereo not drawn) [Example 1, N-[2-(3-benzyl-1-oxo-isoindolin-5-yl)oxyethyl]-1-methyl-1H-imidazole-4-sulfonamide]
> 10000	CC(C)(C)OC(=O)NCCOc1ccc2c(c1)C(Cc1ccccc1)NC2=O (stereo not drawn) [Example 3, [2-(3-Benzyl-1-oxo-2,3-dihydro-1H-isoindol-5-yloxy)-ethyl]-carbamic acid tert-butyl ester]
< 10000	CC1(Cc2ccccc2)NC(=O)c2ccc(OCCNS(=O)(=O)CC3CC3)cc21 (stereo not drawn) [Example 17, N-[2-(3-Benzyl-3-methyl-1-oxo-isoindolin-5-yl)oxyethyl]-1-cyclopropyl-methanesulfonamide]
< 100	Cn1cnc(S(=O)(=O)NCCOc2cc3c(cc2F)CNC3Cc2ccccc2)c1 (stereo not drawn) [Example 21, 1-Methyl-1H-imidazole-4-sulfonic acid [2-(3-benzyl-6-fluoro-2,3-dihydro-1H-isoindol-5-yloxy)-ethyl]-amide]
< 1000	O=S(=O)(CC1CC1)NCCOc1cc2c(cc1F)CNC2Cc1ccccc1 (stereo not drawn) [Example 23, N-[2-(3-Benzyl-6-fluoro-2,3-dihydro-1H-isoindol-5-yloxy)-ethyl]-C-cyclopropyl-methanesulfonamide]
< 10000	CCS(=O)(=O)NCCOc1cc2c(cc1F)CNC2Cc1ccccc1 (stereo not drawn) [Example 25, Ethanesulfonic acid [2-(3-benzyl-6-fluoro-2,3-dihydro-1H-isoindol-5-yloxy)-ethyl]-amide]
< 10000	CCCS(=O)(=O)NCc1ccc2c(c1)C(Cc1ccccc1)NC2=O (stereo not drawn) [Example 28, Propane-1-sulfonic acid (3-benzyl-1-oxo-2,3-dihydro-1H-isoindol-5-ylmethyl)-amide]
< 100000	CCS(=O)(=O)NCc1ccc2c(c1)C(Cc1ccccc1)NC2 (stereo not drawn) [Example 30, Ethanesulfonic acid (3-benzyl-2,3-dihydro-1H-isoindol-5-ylmethyl)-amide]
